{"source": "patent US20250161260A1", "about": "“USE OF DELTA-TOCOTRIENOL TO REDUCE THE PROGRESSION OF A NEOPLASM TO A CANCER” (H. LEE MOFFITT CANCER CENTER AND RESEARCH INSTITUTE, INC., priority 2022, published 2025)", "key": {"[1]": {"conditions": "human, in vivo", "procedure": "(§1) DT3 has been widely used as a dietary supplement for its presumptive benefit in promoting health by decreasing serum cholesterol levels. […] In an NCI-sponsored phase 1 study (NCT00985777), we enrolled 9 out of 25 patients with IPMNs who were treated with DT3 for 2 weeks. […] In our IHC analyses of tumor specimens, we observed a significant induction of cleaved caspase-3 and BAX in the IPMN neoplastic cells of 7 of 9 patients (77%) treated at doses of 100 mg orally twice daily or higher (FIG. 1). We identified 400 mg BID as a Biological Effective Dose (BED) for DT3 in our phase I trial^33. Therefore, we propose to confirm DT3 activity on IPMNs at 400 mg twice daily in a phase II trial, since this was the most bioactive dose observed in our phase I trial."}, "IPMN neoplastic cells": {"tested_on": "IPMN neoplastic cells", "assay": "IHC of cleaved caspase-3 and BAX in tumor specimens of patients treated with DT3", "type": "in vivo, human", "procedure": "Lower panel is IHC stained for the pro-apoptotic protein Bax, illustrating the association of DT 3 induction of apoptosis with increased expression of Bax\nas §1"}, "LGKC1 cells [2]": {"tested_on": "LGKC1 cells", "assay": "Cell proliferation by MTT assay, LGKC1", "type": "cell-based, murine", "conditions": "LGKC1, 48 h", "procedure": "(§2) LGKC1 (left) and LGKC2 cells were treated with varying doses of DT3 for 24, 48, and 72 h and cell proliferation were measured by MTT assay.\n(§3) We further studied the effect of DT3 on the proliferation of recently described murine IPMN cell lines LGKC1 & LGKC2 derived from constitutively active Kras and Gnas murine model of pancreatic cystic lesions [p48-Cre; KrasG12D; Rosa26R-rtTA-TetO-GnasR201C]. […] These IC50 doses were used for downstream functional studies in LGKC1 and LGKC2 cell lines."}, "LGKC2 cells [3]": {"tested_on": "LGKC2 cells", "assay": "Cell proliferation by MTT assay, LGKC2", "type": "cell-based, murine", "conditions": "LGKC2, 48 h", "procedure": "as §2, §3"}, "LGKC1 cells [4]": {"tested_on": "LGKC1 cells", "assay": "Apoptosis by flow cytometry (annexin V / propidium iodide), LGKC1", "type": "cell-based, murine", "conditions": "LGKC1, IC50 dose, 48 h", "procedure": "(§4) LGKC1 (9A, 9C, 9E) and LGKC2 (9B, 9D, 9E) cells were treated with IC50 dose of DT 3 for 48 h. Apoptosis was measured by flow cytometry following annexin V and propidium iodide staining (9A, 9B). For cell cycle analysis by flow cytometry (9C, 9D) cells were synchronized with double thymidine block prior to treatment with DT 3. Following the treatment, cell lysates were prepared and impact on downstream signaling was performed by immunoblotting using the indicated antibodies (9E) and subjected to RNA sequencing (9F).\n(§5) To determine if the reduced cell proliferation of IPMN cells by DT3 were due to its impact on cell cycle or cell death, we assayed apoptosis and cell cycle analysis by flow cytometry. […] RNA seq analysis of the treated cells further indicated significant upregulation of biological processes associated with programmed cell death, cell proliferation, immune response, and collagen fibril organization (FIG. 9F)."}, "LGKC2 cells [5]": {"tested_on": "LGKC2 cells", "assay": "Apoptosis by flow cytometry (annexin V / propidium iodide), LGKC2", "type": "cell-based, murine", "conditions": "LGKC2, IC50 dose, 48 h", "procedure": "as §4, §5"}, "LGKC1 cells [6]": {"tested_on": "LGKC1 cells", "assay": "Cell cycle analysis by flow cytometry, LGKC1", "type": "cell-based, murine", "conditions": "LGKC-1, IC50 dose, 48 h, double thymidine block", "procedure": "as §4, §5"}, "LGKC2 cells [7]": {"tested_on": "LGKC2 cells", "assay": "Cell cycle analysis by flow cytometry, LGKC2", "type": "cell-based, murine", "conditions": "LGKC-2, IC50 dose, 48 h, double thymidine block", "procedure": "as §4, §5"}, "LGKC1 cells [8]": {"tested_on": "LGKC1 cells", "assay": "Immunoblotting of downstream signaling, LGKC1", "type": "cell-based, murine", "conditions": "LGKC1, IC50 dose", "procedure": "as §4, §5"}, "LGKC2 cells [9]": {"tested_on": "LGKC2 cells", "assay": "Immunoblotting of downstream signaling, LGKC2", "type": "cell-based, murine", "conditions": "LGKC2, IC50 dose", "procedure": "as §4, §5"}, "[10]": {"tested_on": "Wnt receptor activity in 3T3 cells", "assay": "Wnt receptor activity (luciferase units) in 3T3 cells", "type": "cell-based", "conditions": "after Wnt3a"}, "[11]": {"tested_on": "β-catenin expression in 3T3 cells", "assay": "β-catenin expression in 3T3 cells", "type": "cell-based"}, "[12]": {"tested_on": "β-catenin expression in HPNE-Kras cells", "assay": "β-catenin expression in HPNE-Kras cells", "type": "cell-based"}, "[13]": {"tested_on": "β-catenin expression in PCSCs", "assay": "β-catenin expression in human PC stem cells (PCSCs)", "type": "cell-based", "conditions": "less inhibition with DT 3 without Wnt3a pretreatment"}, "HPNE-Kras cells": {"tested_on": "HPNE-Kras cells", "assay": "Apoptosis (C-PARP) and signaling protein expression in HPNE-Kras cells", "type": "cell-based"}, "HPNE cells": {"tested_on": "HPNE cells", "assay": "Apoptosis (C-PARP) in HPNE cells", "type": "cell-based"}, "[14]": {"conditions": "100 mg orally twice daily or higher, 2 weeks"}}, "data": [{"molecule": "CC(C)=CCC/C(C)=C/CC/C(C)=C/CC[C@]1(C)CCc2cc(O)cc(C)c2O1", "note": "[DT3, δ-tocotrienol]", "values": [{"measurement": "half-life", "setting": "[1]", "value": "approximately 4 hours"}, {"measurement": "toxicity (dose-limiting toxicities, drug-related adverse events, postoperative complications)", "setting": "[1]", "value": "no evidence of toxicity"}, {"measurement": "patients with significant induction of cleaved caspase-3 and BAX in IPMN neoplastic cells", "setting": "IPMN neoplastic cells; [14]", "value": "7 of 9"}, {"measurement": "percent of patients with significant induction of cleaved caspase-3 and BAX in IPMN neoplastic cells", "setting": "IPMN neoplastic cells; [14]", "value": 77, "unit": "%"}, {"measurement": "apoptosis as measured by cleaved caspase-3 expression (IHC)", "setting": "IPMN neoplastic cells; patients with IPMN", "value": "significantly induced apoptosis"}, {"measurement": "IC50", "setting": "LGKC1 cells [2]", "value": 25.3, "unit": "µM"}, {"measurement": "IC50", "setting": "LGKC2 cells [3]", "value": 29.4, "unit": "µM"}, {"measurement": "apoptosis", "setting": "LGKC1 cells [4]", "value": "induced apoptosis"}, {"measurement": "apoptosis", "setting": "LGKC2 cells [5]", "value": "induced apoptosis"}, {"measurement": "cell cycle progression", "setting": "LGKC1 cells [6]", "value": "G2/M arrest and accumulation of cells in S-phase"}, {"measurement": "cell cycle progression", "setting": "LGKC2 cells [7]", "value": "no effect on cell cycle progression"}, {"measurement": "expression of b-catenin", "setting": "LGKC1 cells [8]", "value": "no effect"}, {"measurement": "p-AKT, p-ERK1/2, cyclin D1", "setting": "LGKC1 cells [8]", "value": "significant reduction"}, {"measurement": "pGSK3β and cleaved PARP", "setting": "LGKC1 cells [8]", "value": "upregulation"}, {"measurement": "expression of b-catenin", "setting": "LGKC2 cells [9]", "value": "no effect"}, {"measurement": "p-AKT, p-ERK1/2, cyclin D1", "setting": "LGKC2 cells [9]", "value": "significant reduction"}, {"measurement": "pGSK3β and cleaved PARP", "setting": "LGKC2 cells [9]", "value": "upregulation"}, {"measurement": "agonist (Wnt3a)-induced Wnt receptor activity (luciferase units)", "setting": "[10]", "value": "significantly inhibited"}, {"measurement": "Wnt agonist-induced β-catenin expression", "setting": "[11]", "value": "inhibited"}, {"measurement": "β-catenin expression", "setting": "[12]", "value": "abolished"}, {"measurement": "β-catenin expression", "setting": "[13]", "value": "abolished"}, {"measurement": "apoptosis (C-PARP)", "setting": "HPNE-Kras cells", "value": "selectively induced apoptosis"}, {"measurement": "expression of MUC4, MUC16, β-catenin and downstream proteins (C-myc, cyclin D1, survivin)", "setting": "HPNE-Kras cells", "value": "decreased the expression"}, {"measurement": "pAKT and pERK", "setting": "HPNE-Kras cells", "value": "inhibited"}, {"measurement": "apoptosis (C-PARP)", "setting": "HPNE cells", "value": "not in HPNE cells"}]}, {"molecule": "DKK1: Wnt antagonist (protein, UniProt O94907 32-266, looked up) Dickkopf-related protein 1: TLNSVLNSNAIKNLPPPLGGAAGHPGSAVSAAPGILYPGGNKYQTIDNYQPYPCAEDEECGTDEYCASPTRGGDAGVQICLACRKRRKRCMRHAMCCPGNYCKNGICVSSDQNHFRGEIEETITESFGNDHSTLDGYSRRTTLSSKMYHTKGQEGSVCLRSSDCASGLCCARHFWSKICKPVLKEGQVCTKHRRKGSHGLEIFQRCYCGEGLSCRIQKDHHQASNSSRLHTCQRH", "values": [{"measurement": "agonist (Wnt3a)-induced Wnt receptor activity (luciferase units)", "setting": "[10]", "value": "inhibited"}, {"measurement": "Wnt agonist-induced β-catenin expression", "setting": "[11]", "value": "inhibited"}, {"measurement": "β-catenin expression", "setting": "[12]", "value": "abolished"}, {"measurement": "β-catenin expression", "setting": "[13]", "value": "abolished"}]}]}
